The text below walks through data of patent publication US7261876B2, “Multivalent constructs for therapeutic and diagnostic applications” (Bracco International BV, priority 2002, dated 2007).

Entries after “also recorded” stand apart in the source; their conditions may differ. Positions of bridges follow the written chain, without caps; N, C: chain ends. Non-standard residues stand in square brackets, D forms with d. Residues, ends and D or L forms follow the SMILES beside them. Lys(ivDde) = CC(C)CC(NCCCC[C@H](N)C(=O)O)=C1C(=O)CC(C)(C)CC1=O Where only a bound is given, the exact number is not on record here.

As usually defined, the inhibition is the relative decrease from the control value, in per cent.

In one experiment the target is T1, Soluble KDR receptor (Homo sapiens, UniProt P35968).
T1 construct: Soluble KDR receptor was cross-linked to the dextran surface of a CM5 sensor chip
T1 sequence (P35968 20-764 limits assumed): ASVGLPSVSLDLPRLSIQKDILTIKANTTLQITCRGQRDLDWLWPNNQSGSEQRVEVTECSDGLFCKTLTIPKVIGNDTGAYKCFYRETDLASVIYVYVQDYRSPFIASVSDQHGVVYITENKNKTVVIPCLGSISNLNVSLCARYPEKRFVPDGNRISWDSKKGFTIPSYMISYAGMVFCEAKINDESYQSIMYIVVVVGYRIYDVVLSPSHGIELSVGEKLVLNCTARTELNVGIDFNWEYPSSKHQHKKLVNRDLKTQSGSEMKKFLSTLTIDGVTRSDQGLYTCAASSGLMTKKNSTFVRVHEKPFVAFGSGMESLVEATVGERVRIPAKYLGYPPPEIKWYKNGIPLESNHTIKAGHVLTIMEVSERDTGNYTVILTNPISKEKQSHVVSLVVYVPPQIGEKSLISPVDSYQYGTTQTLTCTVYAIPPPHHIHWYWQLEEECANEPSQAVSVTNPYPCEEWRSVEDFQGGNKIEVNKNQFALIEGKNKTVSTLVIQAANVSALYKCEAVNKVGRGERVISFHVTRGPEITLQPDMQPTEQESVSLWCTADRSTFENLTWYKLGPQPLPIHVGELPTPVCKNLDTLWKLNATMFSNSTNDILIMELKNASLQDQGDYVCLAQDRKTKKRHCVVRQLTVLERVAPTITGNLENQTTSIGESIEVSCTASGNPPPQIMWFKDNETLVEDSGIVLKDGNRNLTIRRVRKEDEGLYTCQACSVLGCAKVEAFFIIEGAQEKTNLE
Briefly: Surface plasmon resonance (Biacore 3000) of P9/P10 heterodimers. Type of experiment: binding.

The target of experiment [1] is T2, KDR expressed by transfected 293H cells (Homo sapiens, UniProt P35968).
T2 construct: Both PCR products were digested with Not1 and ligated together to create the full-length receptor; V5-His (encoded by the vector); expressed in transfected cells; host or cells: 293H cells (Invitrogen cat. # 11631), transient lipofectamine 2000 transfection
T2 sequence (P35968 20-1356): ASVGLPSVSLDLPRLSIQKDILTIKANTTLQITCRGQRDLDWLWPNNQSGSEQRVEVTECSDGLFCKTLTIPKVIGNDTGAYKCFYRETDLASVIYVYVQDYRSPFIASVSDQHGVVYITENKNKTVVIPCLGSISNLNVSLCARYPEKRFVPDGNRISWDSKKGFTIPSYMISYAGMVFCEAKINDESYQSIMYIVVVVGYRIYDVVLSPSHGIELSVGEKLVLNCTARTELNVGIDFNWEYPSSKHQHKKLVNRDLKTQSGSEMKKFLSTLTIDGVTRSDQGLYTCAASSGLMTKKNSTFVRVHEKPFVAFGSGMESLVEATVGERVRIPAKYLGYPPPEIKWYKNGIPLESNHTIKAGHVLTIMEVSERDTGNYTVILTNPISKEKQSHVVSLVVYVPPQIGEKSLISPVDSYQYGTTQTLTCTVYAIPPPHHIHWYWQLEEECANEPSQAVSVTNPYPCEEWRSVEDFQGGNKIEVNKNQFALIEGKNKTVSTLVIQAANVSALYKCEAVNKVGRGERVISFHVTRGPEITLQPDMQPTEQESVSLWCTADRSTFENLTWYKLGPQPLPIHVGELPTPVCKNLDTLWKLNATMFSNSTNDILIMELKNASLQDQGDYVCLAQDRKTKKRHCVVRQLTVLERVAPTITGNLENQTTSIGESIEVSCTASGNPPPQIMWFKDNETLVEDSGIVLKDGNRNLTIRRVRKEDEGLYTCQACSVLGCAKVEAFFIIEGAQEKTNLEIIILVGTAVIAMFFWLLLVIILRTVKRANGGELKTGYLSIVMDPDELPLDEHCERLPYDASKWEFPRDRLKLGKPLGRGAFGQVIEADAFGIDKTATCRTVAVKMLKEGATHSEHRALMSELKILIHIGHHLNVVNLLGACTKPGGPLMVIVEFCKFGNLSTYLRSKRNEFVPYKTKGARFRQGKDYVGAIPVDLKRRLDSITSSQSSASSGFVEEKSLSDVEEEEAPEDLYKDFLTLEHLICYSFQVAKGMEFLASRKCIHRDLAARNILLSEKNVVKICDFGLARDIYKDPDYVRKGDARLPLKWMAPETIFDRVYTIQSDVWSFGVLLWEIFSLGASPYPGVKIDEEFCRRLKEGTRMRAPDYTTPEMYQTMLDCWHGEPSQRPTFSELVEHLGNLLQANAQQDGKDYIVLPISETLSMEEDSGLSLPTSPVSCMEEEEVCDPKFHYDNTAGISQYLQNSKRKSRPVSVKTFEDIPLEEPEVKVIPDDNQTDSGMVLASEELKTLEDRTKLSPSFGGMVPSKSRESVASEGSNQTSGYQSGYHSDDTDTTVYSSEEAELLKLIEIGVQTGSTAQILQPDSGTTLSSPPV
Briefly: Competition with 125I-labeled VEGF for binding to KDR-transfected 293H cells.
Experimental: Once prepared, the solutions were kept on ice until ready to use.
Cells were used 24 h after transfection, and to prepare the cells for the assay, they were washed 3 times with room temperature M199 medium and placed in the refrigerator. […] After incubating at 4° C. for 2 h, the plates were washed 5 times with cold binding buffer, gently blotted dry and checked under a microscope for cell loss. 100 μL of solubilizing solution (2% Triton X-100, 10% Glycerol, 0.1% BSA) was added to each well and the plates were incubated at room temperature for 30 minutes. The solubilizing solution in each well was mixed by pipeting up and down, and transferred to 1.2 mL tubes. Each well was washed twice with 100 μL of solubilizing solution and the washes were added to the corresponding 1.2 mL tube.
After washing the cells, the bound radioactivity was quantitated on a gamma counter.

The target of another experiment is T3, KDR (Homo sapiens, UniProt P35968).
T3 construct: host or cells: HUVEC
T3 sequence (P35968 20-1356): as above
Briefly: VEGF-induced KDR receptor activation (phosphorylation) assay in HUVECs. Format: cell-based. The settings on record: for inhibition of VEGF-induced activation of KDR: concentration not given. An excerpt:
Human umbilical vein endothelial cells (HUVECs) (Biowhittaker Cat No. CC-2519) were obtained frozen on dry ice and stored in liquid nitrogen until thawing. These cells were thawed, passaged, and maintained as described by the manufacturer in EGM-MV medium (Biowhittaker Cat No. CC-3125). Cells seeded into 100 mm dishes were allowed to become confluent, then cultured overnight in basal EBM medium lacking serum (Biowhittaker Cat No. CC-3121). The next morning, the medium in the dishes was replaced with 10 mL fresh EBM medium at 37° C. containing either no additive (negative control), 5 ng/mL VEGF (Calbiochem Cat No. 676472 or Peprotech Cat No. 100-20) (positive control), or 5 ng/mL VEGF plus the indicated concentration of the KDR-binding peptide (prepared as described above). In some cases, a neutralizing anti-KDR antibody (Cat No. AF357, R&D Systems) was used as a positive control inhibitor of activation. In such cases, the antibody was pre-incubated with the test cells for 30 min at 37° C. prior to the addition of fresh medium containing both VEGF and the antibody. After incubating the dishes 5 min in a 37° C. tissue culture incubator they were washed three times with ice-cold Dulbecco's phosphate buffered saline (D-PBS) containing calcium and magnesium and placed on ice without removing the last 10 mL of D-PBS. The first dish of a set was drained and 0.5 mL of Triton lysis buffer was added (20 mM Tris base pH 8.0, 137 mM NaCl, 10% glycerol, 1% Triton X-100, 2 mM EDTA (ethylenediaminetetraacetic acid), 1 mM PMSF (phenylmethylsulfonylfluoride), 1 mM sodium orthovanadate, 100 mM NaF, 50 mM sodium pyrophosphate, 10 μg/mL leupeptin, 10 μg/mL aprotinin). The cells were quickly scraped into the lysis buffer using a cell scraper (Falcon, Cat No. 353087), dispersed by pipeting up and down briefly, and the resulting lysate was transferred to the second drained dish of the pair. Another 0.5 mL of lysis buffer was used to rinse out the first dish then transferred to the second dish, which was then also scraped and dispersed. The pooled lysate from the two dishes was transferred to a 1.5 mL Eppindorf tube. The above procedure was repeated for each of the controls and test samples (KDR-binding peptides), one at a time. The lysates were stored on ice until all the samples had been processed. At this point samples were either stored at −70° C. or processed to the end of the assay without interruption.
The lysates, either freshly prepared or frozen and thawed, were precleared by adding 20 μL of protein A-sepharose beads (Sigma 3391, preswollen in D-PBS), washed three times with a large excess of D-PBS, reconstituted with 6 mL D-PBS to generate a 50% slurry) and rocked at 4° C. for 30 min. The beads were pelleted by centrifugation for 2 min in a Picofuge (Stratgene, Cat No. 400550) at 2000×g and the supernatants transferred to new 1.5 mL tubes. 20 μg of anti-Flk-1 antibody (Santa Cruz Biotechnology, Cat No. sc-504) was added to each tube, and the tubes were incubated overnight (16–18 h) at 4° C. on a rotator to immunoprecipitate KDR. The next day 40 μL of protein A-sepharose beads were added to the tubes, which were then incubated at 4° C. for 1 h on a rotator. The beads in each tube were subsequently washed three times by centrifuging for 2 min in a Picofuge, discarding the supernatant, and dispersing the beads in 1 mL freshly added TBST buffer (20 mM Tris base pH 7.5, 137 mM NaCl, and 0.1% Tween 20). After centrifuging and removing the liquid from the last wash, 40 μL of Laemmli SDS-PAGE sample buffer (Bio-Rad, Cat No. 161-0737) was added to each tube and the tubes were capped and boiled for 5 min. After cooling, the beads in each tube were pelleted by centrifuging and the supernatants containing the immunoprecipitated KDR were transferred to new tubes and used immediately or frozen and stored at −70° C. for later analysis.
Detection of phosphorylated KDR as well as total KDR in the immunoprecipitates was carried out by immunoblot analysis. […]

Turning to AQEPEGYAYWEVITLYHEEDGDGG [P9], the “kd,1” value on Soluble KDR receptor was determined as 0.00332 s⁻¹.
For the compound AGDSWCSTEYTYCEMIGT [P4], the “competition with 125I-VEGF for binding to KDR-transfected cells” value in experiment [1] was “did not compete significantly”.
Consider `CC(=O)NCC(=O)N[C@@H](CC(=O)O)C(=O)N1CCC[C@H]1C(=O)N1CCC[C@H]1C(=O)N[C@@H](CC(C)C)C(=O)N[C@H]1CSSC[C@@H](C(=O)N[C@@H](CC(N)=O)C(=O)N2CCC[C@H]2C(=O)N[C@@H](Cc2ccccc2)C(=O)N[C@@H](CC(=O)O)C(=O)N2CCC[C@H]2C(=O)NCC(=O)NCC(=O)NCC(=O)N[C@@H](CCCCN)C(N)=O)NC(=O)[C@H](Cc2c[nH]cn2)NC(=O)[C@H](Cc2c[nH]cn2)NC(=O)[C@H](Cc2c[nH]c3ccccc23)NC(=O)[C@H](CCC(=O)O)NC(=O)[C@H](CCC(N)=O)NC(=O)[C@H]([C@@H](C)O)NC(=O)CNC(=O)[C@H](C(C)C)NC(=O)[C@H](Cc2ccccc2)NC(=O)[C@H](Cc2ccc(O)cc2)NC1=O` [P17-D] (Ac-GDPPLCYFVGTQEWHHCNPFDPGGGK-NH2; disulfide 6-17), for which the “inhibition of KDR activation” value at KDR (10 μM) was “did not produce significant inhibition of KDR activation”.
For the compound `CC(=O)NCC(=O)N[C@@H](CC(=O)O)C(=O)N[C@@H](Cc1ccc(O)cc1)C(=O)N1CCC[C@H]1C(=O)N[C@@H](Cc1c[nH]c2ccccc12)C(=O)N[C@H]1CSSC[C@@H](C(=O)N[C@H](C(=O)N2CCC[C@H]2C(=O)N[C@@H](Cc2c[nH]c3ccccc23)C(=O)N[C@@H](CC(=O)O)C(=O)N2CCC[C@H]2C(=O)NCC(=O)NCC(=O)NCC(=O)N[C@@H](CCCCN)C(N)=O)C(C)C)NC(=O)[C@H](Cc2ccccc2)NC(=O)[C@H](CCCNC(=N)N)NC(=O)[C@H]([C@@H](C)O)NC(=O)[C@H](C(C)C)NC(=O)[C@H](CO)NC(=O)[C@H](CC(=O)O)NC(=O)[C@H](CO)NC(=O)[C@H](CC(C)C)NC(=O)[C@H](CCC(=O)O)NC(=O)[C@H](Cc2c[nH]cn2)NC1=O` [P15-D] (Ac-GDYPWCHELSDSVTRFCVPWDPGGGK-NH2; disulfide 6-17), the “inhibition of KDR activation” value at KDR (10 μM) was “did not produce significant inhibition of KDR activation”.
On the same count and under the same terms, in the case of `CSCC[C@H](NC(=O)[C@H](Cc1ccc(O)cc1)NC(=O)[C@H](Cc1c[nH]c2ccccc12)NC(=O)[C@@H]1CSSC[C@H](NC(=O)[C@@H]2CCCN2C(=O)CNC(=O)[C@@H]2CCCN2C(=O)CNC(=O)[C@H](C)NC(C)=O)C(=O)N[C@@H](CCCCNC(CC(C)C)=C2C(=O)CC(C)(C)CC2=O)C(=O)NCC(=O)N[C@@H](Cc2ccc(O)cc2)C(=O)N[C@@H](CCSC)C(=O)N2CCC[C@H]2C(=O)N[C@@H](Cc2c[nH]cn2)C(=O)N[C@@H](CCC(N)=O)C(=O)N1)C(=O)NCC(=O)N[C@H](C(=O)NCC(=O)NCC(=O)NCC(=O)N[C@@H](CCCCN)C(N)=O)[C@@H](C)O` [P21-E] (Ac-AGPGPC[Lys(ivDde)]GYMPHQCWYMGTGGGK-NH2; disulfide 6-14) it was “did not produce significant inhibition of KDR activation”.
As to Ac-AGPKWC*EEDWYYC*MITGT-GGGK-NH2 [P5-D], the “inhibition of VEGF-induced activation of KDR” value against KDR is “inhibit activation of KDR”.
On to `CSCC[C@H](NC(=O)[C@H](Cc1c[nH]cn1)NC(=O)[C@H](CC(=O)O)NC(=O)[C@H](CC(=O)O)NC(=O)CNC(C)=O)C(=O)N[C@H]1CSSC[C@@H](C(=O)N[C@@H](CCSC)C(=O)N[C@@H](Cc2ccc(O)cc2)C(=O)N[C@@H](Cc2c[nH]c3ccccc23)C(=O)N[C@@H](CC(=O)O)C(=O)N2CCC[C@H]2C(=O)NCC(=O)NCC(=O)NCC(=O)N[C@@H](CCCCN)C(N)=O)NC(=O)[C@H](Cc2ccccc2)NC(=O)[C@H](C(C)C)NC(=O)[C@H](Cc2c[nH]cn2)NC(=O)[C@H](CC(=O)O)NC(=O)[C@H](CCC(N)=O)NC(=O)[C@H](Cc2ccc(O)cc2)NC(=O)[C@H](CC(=O)O)NC(=O)[C@@H]2CCCN2C(=O)[C@H](CO)NC(=O)[C@H](CCCNC(=N)N)NC1=O` [P16-D] (Ac-GDDHMCRSPDYQDHVFCMYWDPGGGK-NH2; disulfide 6-17), for which the “inhibition of KDR activation” value on KDR (10 μM) was “did not produce significant inhibition of KDR activation”.
On the same count and under the same terms, in the case of `CC[C@H](C)[C@@H]1NC(=O)[C@H](Cc2c[nH]c3ccccc23)NC(=O)[C@H](CCC(N)=O)NC(=O)CNC(=O)[C@H](CC(N)=O)NC(=O)[C@H](Cc2c[nH]cn2)NC(=O)[C@H](CC(C)C)NC(=O)[C@H](Cc2ccc(O)cc2)NC(=O)[C@@H](NC(=O)[C@H](Cc2c[nH]cn2)NC(=O)[C@H](Cc2c[nH]cn2)NC(=O)[C@H](CC(=O)O)NC(=O)[C@H](CO)NC(=O)CNC(C)=O)CSSC[C@@H](C(=O)N[C@@H](Cc2ccc(O)cc2)C(=O)N2CCC[C@H]2C(=O)N[C@@H](Cc2ccccc2)C(=O)N[C@@H](C)C(=O)N2CCC[C@H]2C(=O)NCC(=O)NCC(=O)NCC(=O)N[C@@H](CCCCN)C(N)=O)NC1=O` [P14-D] (Ac-GSDHHCYLHNGQWICYPFAPGGGK-NH2; disulfide 6-15) it was “did not produce significant inhibition of KDR activation”.
Regarding “Ac-AQAFPRFGGDDYWIQQYLRYTDGGK-NH2 [P10-D]”, on KDR, the “inhibition of VEGF-induced activation of KDR” value is listed as “inhibit activation of KDR; also recorded: able to largely inhibit the VEGF-induced phosphorylation of KDR”.
`CC(=O)N[C@@H](C)C(=O)NCC(=O)N[C@@H](Cc1c[nH]c2ccccc12)C(=O)N[C@@H](CC(C)C)C(=O)N[C@@H](CCC(=O)O)C(=O)N[C@H]1CSSC[C@@H](C(=O)N[C@@H](Cc2ccc(O)cc2)C(=O)N[C@@H](CC(N)=O)C(=O)N[C@@H](Cc2ccccc2)C(=O)NCC(=O)N[C@H](C(=O)NCC(=O)NCC(=O)NCC(=O)N[C@@H](CCCCN)C(N)=O)[C@@H](C)O)NC(=O)[C@H](Cc2c[nH]cn2)NC(=O)CNC(=O)[C@H](Cc2ccccc2)NC(=O)[C@H](CCC(=O)O)NC(=O)[C@H](C)NC(=O)[C@H](Cc2ccc(O)cc2)NC1=O` [P3-D] (Ac-AGWLECYAEFGHCYNFGTGGGK-NH2; disulfide 6-13): the inhibition at 10 µM at KDR (HUVEC, 10 μM, read-out: inhibition of VEGF-induced KDR phosphorylation) was at least 50%.
Turning to “Ac-AGPTWC*EDDWYYC*WLFGT-GGGK-(Biotin-JJ-)-NH2 [P12-XB]”, the figures for the “percentage inhibition of 125I-labeled VEGF binding” value in experiment [1] (0.3 μM peptide) and in experiment [1] (30 μM peptide) were 80.96±3.8% and 104.48±2.07%, respectively.
For `CSCC[C@@H]1NC(=O)[C@H](CC(N)=O)NC(=O)[C@H](CO)NC(=O)[C@H](Cc2c[nH]c3ccccc23)NC(=O)CNC(=O)[C@@H](NC(=O)[C@H](CCC(=O)O)NC(=O)[C@H](Cc2c[nH]c3ccccc23)NC(=O)[C@H](CC(N)=O)NC(=O)[C@H](CC(=O)O)NC(=O)CNC(C)=O)CSSC[C@@H](C(=O)N[C@@H](C)C(=O)N[C@@H](CCCNC(=N)N)C(=O)N2CCC[C@H]2C(=O)N[C@@H](CC(=O)O)C(=O)N2CCC[C@H]2C(=O)NCC(=O)NCC(=O)NCC(=O)N[C@@H](CCCCN)C(N)=O)NC(=O)[C@H](Cc2ccccc2)NC(=O)[C@H](CCC(=O)O)NC(=O)[C@H](CCCCNC(CC(C)C)=C2C(=O)CC(C)(C)CC2=O)NC(=O)[C@H](CCC(N)=O)NC(=O)[C@H](Cc2ccccc2)NC1=O` [P20-E] (Ac-GDNWECGWSNMFQ[Lys(ivDde)]EFCARPDPGGGK-NH2; disulfide 6-17), the “inhibition of KDR activation” value against KDR (10 μM) is “did not produce significant inhibition of KDR activation”.
Take “Ac-GDSRVC*WEDSWGGEVC*FRYDPGGGK-NH2 [P6-D]”: on KDR, the “inhibition of VEGF-induced activation of KDR” value is “inhibit activation of KDR”.
